Source: patent US11767353B2, “Trail compositions with reduced immunogenicity” (Theraly Fibrosis, Inc., priority 2020, dated 2023)
“Also recorded” adds a separate entry of the source.

What was measured:
[1] = system: activated human primary pancreatic stellate cells (PSCs); assay: Caspase 3/7 activity and immunoblot in activated pancreatic stellate cells; assay type: cell-based; conditions: TLY012 30 or 100 ng/ml for 3h
Protocol: Human primary pancreatic stellate cells (PSCs) and stellate cell medium (SteCM) were obtained from ScienCell Research Laboratories (Carlsbad, Calif.). PSCs were cultured on Poly-L-Lysine coated plates in SteCM medium supplemented with 2% of FBS, 1% of stellate cell growth supplement, and 1% of penicillin/streptomycin solution according to the manufacturer's instructions. Pancreatic cancer associated fibroblasts (CAF08) and maintenance media (PC00B5) were obtained from Vitro Biopharma. 100 of PSCs were culture-activated for 7 to have the confluent population of activated cells or 2×10^4 cells of CAF08 were cultured on a 96 well microplate (Corning, CLS3917) for 24h and were incubated with TLY012 (at 30 ng/ml or 100 ng/ml) for 3h. After incubation, 50 μL of Caspase 3/7 substrate/lysis buffer was added to each well and incubated for 30 min after 30 min of equilibration period to room temperature. The luminescence of each sample was measured on a plate reader (Bio-Tek Instruments Inc) with parameters of 1 min lag time and 0.5 sec/well-read time (n=3).
For immunoblot, 100 of PSCs were culture activated on a 6 well plate for 7 days or 2×10^5 of CAF08 cells were plated on 6-well plates followed by control treatment or treatment with TLY012 (at 30 ng/ml or 100 ng/ml) for 3h. The lysates from the cells were tested for the presence of Cl.PARP-1 and SMA using Western bot.

[2] = system: ASPC-1/PSC xenografts; assay: PSC/ASPC-1 subcutaneous xenograft in athymic nude mice; assay type: in vivo
Protocol: Six-week-old athymic nude mice were anesthetized for all procedures 5×10^6ASPC-1 cells (human pancreas adenocarcinoma ascites metastasis cell line derived from nude mouse xenografts initiated with cells from the ascites of a patient with cancer of the pancreas) were mixed with 5×10^4 PSC cells and injected in a subcutaneous in athymic nude mice. Before injection, the cells were trypsinized, counted, washed twice in 1×PBS and resuspended in 100 μl of Matrigel® matrix (Corning), and injected between the scapulae. Two weeks after the tumor transplantation, mice were injected with TLY012 via intravenous (IV) injection (10 mg/kg, every other day) for 2 weeks, while control mice received PBS. Western blot was performed on tissue extracts with antibodies against GAPDH (Santa Cruz 5 Biotechnology, sc-1694), α-SMA (Sigma, A2547), GRP78 (Santa Cruz Biotechnology, sc-13968), DR4 (Abcam, Cambridge, Mass., #13890), DR5 (Abcam, #47179), PDGF-Rb (Santa Cruz Biotechnology, sc-432), and Cl.PARP-1 (Cell Signaling Technology, #5625).
Comparative quantitative RT-PCR (qPCR) was performed in the tumor sample for fibrogenic markers. qPCR was performed in triplicate for each sample using fast SYBR Green Master Mix (Thermo Fisher Scientific) and StepOnePlus Real-Time PCR System (Thermo Fisher Scientific). The expression levels of target genes were normalized to the expression of 18s and calculated based on the comparative cycle threshold Ct method (2^−ΔΔCt).
Collagen deposition was detected with Masson's Trichrome staining and microscopy.
Mouse xenografts were generated as in Example 8. Two weeks after the tumor transplantation, mice were injected with TLY012 via intravenous (IV) injection (10 mg/kg, every other day) and/or sorafenib (20 mg/kg, oral everyday) for 2 weeks. The mice were euthanized when the tumor volume reached 1500 mm^3 and images of the excised xenografts recorded and tumor weight measured.

[3] = system: primary human hepatocytes; assay: Off-target toxicity in primary human hepatocytes; assay type: cell-based; conditions: concentrations up to 100 nM
[4] = Formulation stability and freeze-thaw stability; assay type: physicochemical
Excerpt: The stability may be evaluated by measuring the ratio of soluble material to the insoluble material that can be separated by centrifugation. The intact structure of stored material can also be confirmed by IEX-HPLC (SP-NPR) and RP-HPLC (C4).

[5] = system: COLO 205 cells; assay: Cell viability bioassay (CELL TITER-GLO) on COLO 205 cells; assay type: cell-based, Human; conditions: colorectal cancer cells COLO-205; read-out: potency in cell viability bioassay
Excerpt: TLY012 is a PEGylated form of rhTRAIL, genetically fused to a humanized coiled-coil isoleucine “zipper” (miLZ) at the N-terminus. It is a DR4/DR5 receptor agonist and as such is known to induce apoptosis in Human colon adenocarcinoma cells COLO 205 resulting in inhibition of cell proliferation. CELL TITER-GLO™ (Promega, WI) was used to measure luminescence in conventional luciferase assay system. This assay is a homogeneous method to determine the number of metabolically active cells based on quantitation of the ATP present. […]
Assay Procedure. […] The 96-well plates were placed into a 37±1.0° C.; 5±0.5% CO2; ≥85% relative humidity cell culture incubator in a single layer and incubated for 1±0.5 hours until cells are ready. […] As a result, inhibition of cell proliferation is measured by adding the CELL TITER-GLO™ solution to the cells, the lysed cells release ATP. […]
The growth medium was RPMI1640 with 10% FBS, glutamine, penicillin/streptomycin solution. […] Cell suspension was transferred to the white 96-well plates and luminescence was measured by BIOTEK plate reader.
Data were analyzed using BioTek Gen5secure software. The dose response curves were generated using the four-parameter fit logistic model and the IC50 values for reference standard and test samples were calculated. Potency of the test sample is expressed as the ratio of the IC50 values of the test and reference standard samples. […]

TLY012: PEGylated (5 kDa PEG-aldehyde) recombinant human TRAIL (114-281) fused to modified isoleucine zipper (miLZ) at N-terminus; SEQ ID NO:30 trimer
Cl.PARP-1, immunoblot [1]: detected | caspase 3/7 activity (RLU) ([1]; vs control treatment): activated caspase 3/7 | tumor weight, Mean ([2]; TLY012 IV 10 mg/kg every other day and/or sorafenib 20 mg/kg oral everyday for 2 weeks): 1109.5 mg | collagen deposition, Masson's Trichrome staining ([2]; TLY012 IV 10 mg/kg every other day, 2 weeks, 10 mg/kg): reduced the levels of collagen; also recorded: markedly reduced collagen deposition | PDGF-Rb, DR5, DR4 (and GRP78) protein levels in tumor, Western blot ([2]; TLY012 IV 10 mg/kg every other day, 2 weeks, vs PBS controls, 10 mg/kg): markedly reduced; also recorded: significantly decreased | mRNA levels of fibrogenic markers Acta2, Pdgf-r, Tgf-b in tumor (qPCR) ([2]; TLY012 IV 10 mg/kg every other day, 2 weeks, vs control, 10 mg/kg): decreased; also recorded: significantly reduced | off-target toxicity [3]: did not show any off-target toxicity | resistance to multiple freeze-thaw cycles ([4]; formulated at 21-22 mg/mi, biological activity and HPLC appearance): resistant to multiple freeze-thaw cycles | concentration at which formulation was stable ([4]; in the presence of physiological concentrations of salt, no detectable precipitation, same IEX-HPLC pattern): up to 25 mg/ml | IC50 [5]: 15.5 pM
